Results on seven molecules are retold here after ChEMBL document CHEMBL1151904, “Computer-aided rational molecular design of argifin-derivatives with increased inhibitory activity against chitinase B from Serratia marcescens” (Bioorg Med Chem Lett, 2009).

This experiment has as its target T1, Chitinase B (Serratia marcescens, UniProt P11797).
T1 sequence (P11797 whole entry): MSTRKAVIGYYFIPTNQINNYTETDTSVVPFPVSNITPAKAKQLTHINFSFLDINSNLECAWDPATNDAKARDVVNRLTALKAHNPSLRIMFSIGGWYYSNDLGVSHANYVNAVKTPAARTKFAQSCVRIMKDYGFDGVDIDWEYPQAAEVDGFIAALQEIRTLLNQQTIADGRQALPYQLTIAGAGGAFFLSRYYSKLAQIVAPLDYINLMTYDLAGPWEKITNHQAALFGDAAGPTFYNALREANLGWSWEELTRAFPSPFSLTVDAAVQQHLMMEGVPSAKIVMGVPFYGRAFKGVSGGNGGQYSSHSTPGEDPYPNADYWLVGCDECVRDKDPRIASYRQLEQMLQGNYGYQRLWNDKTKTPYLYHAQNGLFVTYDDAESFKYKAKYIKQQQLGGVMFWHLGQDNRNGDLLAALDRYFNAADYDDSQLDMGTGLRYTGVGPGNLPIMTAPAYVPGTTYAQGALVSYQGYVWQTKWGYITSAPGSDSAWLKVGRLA
Put plainly: Inhibition of Serratia marcescens chitinase B.
For the molecule `CNC(=O)NC(N)=NCCC[C@@H]1NC(=O)[C@@H](C)NC(=O)C[C@@H](C(=O)N2CCC(Cc3ccccc3)CC2)NC(=O)C[C@@H](C(=O)O)NC(=O)[C@H](Cc2ccccc2)N(C)C1=O`, 1.3 µM corresponded to half-maximal inhibition (IC50).
The figure for `CNC(=O)NC(N)=NCCC[C@@H]1NC(=O)[C@@H](Cc2ccccc2)NC(=O)C[C@@H](C(=O)O)NC(=O)C[C@@H](C(=O)O)NC(=O)[C@H](Cc2ccccc2)N(C)C1=O` is 9.9 µM; for `CNC(=O)NC(N)=NCCC[C@@H]1NC(=O)[C@@H](CC(C)C)NC(=O)C[C@@H](C(=O)O)NC(=O)C[C@@H](C(=O)O)NC(=O)[C@H](Cc2ccccc2)N(C)C1=O` it is 1.9 µM; for `CNC(=O)NC(=N)NCCC[C@@H]1NC(=O)[C@@H](Cc2c[nH]c3ccccc23)NC(=O)C[C@@H](C(=O)O)NC(=O)C[C@@H](C(=O)O)NC(=O)[C@H](Cc2ccccc2)N(C)C1=O` it is 4.5 µM.
The figure for `CNC(=O)NC(N)=NCCC[C@@H]1NC(=O)[C@@H](C(C)C)NC(=O)C[C@@H](C(=O)O)NC(=O)C[C@@H](C(=O)O)NC(=O)[C@H](Cc2ccccc2)N(C)C1=O` is 6.1 µM; for `CNC(=O)NC(N)=NCCC[C@@H]1NC(=O)[C@@H](CC(C)C)NC(=O)C[C@@H](C(=O)N2CCC(Cc3ccccc3)CC2)NC(=O)C[C@@H](C(=O)O)NC(=O)[C@H](Cc2ccccc2)N(C)C1=O` it is 0.23 µM.
The value for `CNC(=O)NC(=N)NCCC[C@@H]1NC(=O)[C@@H](CCSC)NC(=O)C[C@@H](C(=O)O)NC(=O)C[C@@H](C(=O)O)NC(=O)[C@H](Cc2ccccc2)N(C)C1=O` was 10 µM.
